# Test results taken from patent US12351556B2, “Pyridin-2(1H)one derivatives, their preparation and their use for the treatment of pain” (INSTITUT NATIONAL DE LA SANTE ET DE LA RECHERCHE MEDICALE …, priority 2019, dated 2025).
# What was measured:
# [1] = target: Aurora B (Homo sapiens (Human), UniProt Q96GD4); experiment: ICKP protein kinase panel screening; format: biochemical; conditions: duplicate assays, read-out: mean % residual activity
# Description: (§1) FIG. 3 illustrates the human kinome. Compound 69 was evaluated at the International Center For Kinase Profiling (ICKP, Dundee, Scotland) toward a panel of 50 protein kinases that provide a representative sampling of the human kinome. The results were expressed as the mean percentage of residual activity at 10 μM concentration (duplicate assays). Small disks: ≥65%, larger disk: 19%. The black square indicates the kinome region containing protein kinases evaluated in a second screening (FIG. 4, Table 4). The tree was generated using the Kinome Render software, and the illustration reproduced courtesy of Cell Signaling Technology, Inc. (www.cellsignal.com) Chartier et al PeerJ 2013, 1:e126.
# (§2) Results are expressed as the mean percentage of residual activity at 10 μM (Table 3) or 1 μM (Table 4). They are illustrated on FIGS. 3 and 4.
# (§3) Studies were undertaken to identify the possible biological target(s) of compound 69. The activation in neurons of PK such as PKCγ, ERK or p38 MAPK can contribute to pain hypersensitivity. Therefore, it was decided to screen compound 69 toward a panel of 50 PKs that provide a representative sampling of the human kinome (FIG. 3, Table 3) (Biochem. J. 2007, 408, 297-315). In this panel, p38α MAPK was identified as the privileged target, with 19% of kinase residual activity at 10 μM compound concentration.
# [2] = target: CAMK1 (Homo sapiens (Human), UniProt Q14012); experiment: ICKP protein kinase panel screening; format: biochemical; conditions: duplicate assays, read-out: mean % residual activity
# Description: as §1, §2, §3
# [3] = target: CAMKKb (Homo sapiens (Human), UniProt Q96RR4); experiment: ICKP protein kinase panel screening; format: biochemical; conditions: duplicate assays, read-out: mean % residual activity
# Description: as §1, §2, §3
# [4] = target: CHK2 (Homo sapiens (Human), UniProt O96017); experiment: ICKP protein kinase panel screening; format: biochemical; conditions: duplicate assays, read-out: mean % residual activity
# Description: as §1, §2, §3
# [5] = target: CK1δ (Homo sapiens (Human), UniProt P48730); experiment: ICKP protein kinase panel screening; format: biochemical; conditions: duplicate assays, read-out: mean % residual activity
# Description: as §1, §2, §3
# [6] = target: EF2K (Homo sapiens (Human), UniProt O00418); experiment: ICKP protein kinase panel screening; format: biochemical; conditions: duplicate assays, read-out: mean % residual activity
# Description: as §1, §2, §3
# [7] = target: GSK3b (Homo sapiens (Human), UniProt P49841); experiment: ICKP protein kinase panel screening; format: biochemical; conditions: duplicate assays, read-out: mean % residual activity
# Chain of GSK3b (P49841 whole entry): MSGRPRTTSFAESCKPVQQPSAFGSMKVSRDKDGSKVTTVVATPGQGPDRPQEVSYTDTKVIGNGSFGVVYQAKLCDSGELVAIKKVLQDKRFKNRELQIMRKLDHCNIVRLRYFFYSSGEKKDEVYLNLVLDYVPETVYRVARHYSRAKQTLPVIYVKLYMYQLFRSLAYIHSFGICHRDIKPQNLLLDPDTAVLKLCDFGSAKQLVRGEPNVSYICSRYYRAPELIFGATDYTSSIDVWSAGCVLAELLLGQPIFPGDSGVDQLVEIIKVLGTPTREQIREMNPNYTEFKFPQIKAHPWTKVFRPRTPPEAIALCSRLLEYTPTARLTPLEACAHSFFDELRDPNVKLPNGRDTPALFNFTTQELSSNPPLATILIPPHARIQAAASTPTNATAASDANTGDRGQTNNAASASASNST
# Description: as §1, §2, §3
# [8] = target: HER4 (Homo sapiens (Human), UniProt Q15303); experiment: ICKP protein kinase panel screening; format: biochemical; conditions: duplicate assays, read-out: mean % residual activity
# Description: as §1, §2, §3
# [9] = target: HIPK2 (Homo sapiens (Human), UniProt Q9H2X6); experiment: ICKP protein kinase panel screening; format: biochemical; conditions: duplicate assays, read-out: mean % residual activity
# Description: as §1, §2, §3
# [10] = target: IGF-1R (Homo sapiens (Human), UniProt P08069); experiment: ICKP protein kinase panel screening; format: biochemical; conditions: duplicate assays, read-out: mean % residual activity
# Description: as §1, §2, §3
# [11] = target: JAK3 (Homo sapiens (Human), UniProt P52333); experiment: ICKP protein kinase panel screening; format: biochemical; conditions: duplicate assays, read-out: mean % residual activity
# Description: as §1, §2, §3
# [12] = target: LKB1 (Homo sapiens (Human), UniProt Q15831); experiment: ICKP protein kinase panel screening; format: biochemical; conditions: duplicate assays, read-out: mean % residual activity
# Description: as §1, §2, §3
# [13] = target: Lck (Homo sapiens (Human), UniProt P06239); experiment: ICKP protein kinase panel screening; format: biochemical; conditions: duplicate assays, read-out: mean % residual activity
# Description: as §1, §2, §3
# [14] = target: MARK3 (Homo sapiens (Human), UniProt P27448); experiment: ICKP protein kinase panel screening; format: biochemical; conditions: duplicate assays, read-out: mean % residual activity
# Chain of MARK3 (P27448 whole entry): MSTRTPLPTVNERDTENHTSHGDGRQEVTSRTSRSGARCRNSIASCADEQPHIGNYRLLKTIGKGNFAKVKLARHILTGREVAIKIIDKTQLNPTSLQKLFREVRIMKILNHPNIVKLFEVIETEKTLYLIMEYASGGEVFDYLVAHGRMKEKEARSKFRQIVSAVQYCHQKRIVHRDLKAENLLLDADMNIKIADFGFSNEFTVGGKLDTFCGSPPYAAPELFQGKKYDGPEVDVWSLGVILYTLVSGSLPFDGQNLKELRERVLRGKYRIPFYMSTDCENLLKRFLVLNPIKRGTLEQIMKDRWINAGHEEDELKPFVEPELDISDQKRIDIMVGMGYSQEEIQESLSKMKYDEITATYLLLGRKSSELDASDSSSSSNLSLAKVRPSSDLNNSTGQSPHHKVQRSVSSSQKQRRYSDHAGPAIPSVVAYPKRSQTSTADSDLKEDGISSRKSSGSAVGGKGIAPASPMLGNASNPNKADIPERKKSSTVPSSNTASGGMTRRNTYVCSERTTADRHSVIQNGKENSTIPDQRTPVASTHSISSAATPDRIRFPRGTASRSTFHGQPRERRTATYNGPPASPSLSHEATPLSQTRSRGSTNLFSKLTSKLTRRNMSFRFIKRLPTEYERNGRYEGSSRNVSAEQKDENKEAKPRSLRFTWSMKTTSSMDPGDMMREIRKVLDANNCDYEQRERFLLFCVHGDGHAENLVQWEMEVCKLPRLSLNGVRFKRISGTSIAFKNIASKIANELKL
# Description: as §1, §2, §3
# [15] = target: MKK1 (Homo sapiens (Human), UniProt Q02750); experiment: ICKP protein kinase panel screening; format: biochemical; conditions: duplicate assays, read-out: mean % residual activity
# Chain of MKK1 (Q02750 whole entry): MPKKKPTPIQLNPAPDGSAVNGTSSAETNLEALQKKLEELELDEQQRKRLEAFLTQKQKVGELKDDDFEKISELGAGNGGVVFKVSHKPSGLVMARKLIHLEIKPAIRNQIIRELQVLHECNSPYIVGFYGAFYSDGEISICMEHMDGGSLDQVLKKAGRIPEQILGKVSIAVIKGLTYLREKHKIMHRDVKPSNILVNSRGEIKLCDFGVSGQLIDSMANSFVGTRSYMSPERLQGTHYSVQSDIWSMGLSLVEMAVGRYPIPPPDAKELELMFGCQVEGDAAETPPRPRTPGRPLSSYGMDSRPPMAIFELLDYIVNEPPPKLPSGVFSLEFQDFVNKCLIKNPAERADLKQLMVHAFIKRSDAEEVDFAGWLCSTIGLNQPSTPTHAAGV
# Description: as §1, §2, §3
# [16] = target: MLK3 (Homo sapiens (Human), UniProt Q16584); experiment: ICKP protein kinase panel screening; format: biochemical; conditions: duplicate assays, read-out: mean % residual activity
# Chain of MLK3 (Q16584 whole entry): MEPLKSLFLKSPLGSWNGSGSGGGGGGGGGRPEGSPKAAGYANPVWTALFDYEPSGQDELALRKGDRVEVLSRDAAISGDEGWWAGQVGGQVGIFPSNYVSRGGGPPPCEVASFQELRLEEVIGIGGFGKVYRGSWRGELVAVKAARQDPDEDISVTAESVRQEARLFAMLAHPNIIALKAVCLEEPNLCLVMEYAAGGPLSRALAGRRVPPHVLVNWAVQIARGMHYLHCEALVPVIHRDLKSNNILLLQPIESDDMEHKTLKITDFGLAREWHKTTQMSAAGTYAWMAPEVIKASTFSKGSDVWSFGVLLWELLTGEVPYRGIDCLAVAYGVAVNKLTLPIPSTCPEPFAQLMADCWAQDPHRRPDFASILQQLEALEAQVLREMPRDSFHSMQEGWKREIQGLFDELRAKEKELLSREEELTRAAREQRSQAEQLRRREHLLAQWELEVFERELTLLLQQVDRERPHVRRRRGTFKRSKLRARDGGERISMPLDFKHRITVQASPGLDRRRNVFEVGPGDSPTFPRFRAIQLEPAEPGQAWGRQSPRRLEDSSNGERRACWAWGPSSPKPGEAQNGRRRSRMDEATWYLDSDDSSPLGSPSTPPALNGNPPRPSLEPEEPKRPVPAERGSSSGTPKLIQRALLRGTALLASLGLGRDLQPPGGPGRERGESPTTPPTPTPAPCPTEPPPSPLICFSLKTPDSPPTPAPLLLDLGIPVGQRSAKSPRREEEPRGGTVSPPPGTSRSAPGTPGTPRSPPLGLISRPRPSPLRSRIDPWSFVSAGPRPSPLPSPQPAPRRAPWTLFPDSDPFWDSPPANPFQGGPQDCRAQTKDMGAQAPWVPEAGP
# Description: as §1, §2, §3
# [17] = target: MSK1 (Homo sapiens (Human), UniProt O75582); experiment: ICKP protein kinase panel screening; format: biochemical; conditions: duplicate assays, read-out: mean % residual activity
# Description: as §1, §2, §3
# [18] = target: MST2 (Homo sapiens (Human), UniProt Q13188); experiment: ICKP protein kinase panel screening; format: biochemical; conditions: duplicate assays, read-out: mean % residual activity
# Chain of MST2 (Q13188 whole entry): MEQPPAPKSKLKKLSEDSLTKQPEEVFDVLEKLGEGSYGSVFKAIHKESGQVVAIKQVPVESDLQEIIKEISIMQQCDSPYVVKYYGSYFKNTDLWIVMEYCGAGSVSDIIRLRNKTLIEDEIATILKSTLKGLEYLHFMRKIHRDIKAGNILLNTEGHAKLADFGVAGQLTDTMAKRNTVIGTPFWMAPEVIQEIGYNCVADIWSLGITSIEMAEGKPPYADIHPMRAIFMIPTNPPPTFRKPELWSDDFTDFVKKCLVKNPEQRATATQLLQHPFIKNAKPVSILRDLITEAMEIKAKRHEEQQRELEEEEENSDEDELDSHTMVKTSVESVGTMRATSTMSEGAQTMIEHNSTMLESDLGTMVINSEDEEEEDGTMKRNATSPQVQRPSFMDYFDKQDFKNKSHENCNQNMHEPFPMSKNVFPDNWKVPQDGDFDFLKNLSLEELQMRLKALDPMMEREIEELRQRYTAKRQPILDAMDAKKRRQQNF
# Description: as §1, §2, §3
# [19] = target: NEK6 (Homo sapiens (Human), UniProt Q9HC98); experiment: ICKP protein kinase panel screening; format: biochemical; conditions: duplicate assays, read-out: mean % residual activity
# Chain of NEK6 (Q9HC98 whole entry): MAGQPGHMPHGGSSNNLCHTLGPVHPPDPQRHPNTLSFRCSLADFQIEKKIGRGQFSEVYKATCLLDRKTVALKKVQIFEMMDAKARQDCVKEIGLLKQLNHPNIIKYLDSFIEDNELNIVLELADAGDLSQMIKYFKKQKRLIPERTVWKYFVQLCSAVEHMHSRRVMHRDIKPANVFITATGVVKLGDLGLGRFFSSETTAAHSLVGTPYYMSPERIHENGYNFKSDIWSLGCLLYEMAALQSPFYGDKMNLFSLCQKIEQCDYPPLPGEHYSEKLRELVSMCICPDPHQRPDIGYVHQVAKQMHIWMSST
# Description: as §1, §2, §3
# [20] = target: PAK4 (Homo sapiens (Human), UniProt O96013); experiment: ICKP protein kinase panel screening; format: biochemical; conditions: duplicate assays, read-out: mean % residual activity
# Chain of PAK4 (O96013 whole entry): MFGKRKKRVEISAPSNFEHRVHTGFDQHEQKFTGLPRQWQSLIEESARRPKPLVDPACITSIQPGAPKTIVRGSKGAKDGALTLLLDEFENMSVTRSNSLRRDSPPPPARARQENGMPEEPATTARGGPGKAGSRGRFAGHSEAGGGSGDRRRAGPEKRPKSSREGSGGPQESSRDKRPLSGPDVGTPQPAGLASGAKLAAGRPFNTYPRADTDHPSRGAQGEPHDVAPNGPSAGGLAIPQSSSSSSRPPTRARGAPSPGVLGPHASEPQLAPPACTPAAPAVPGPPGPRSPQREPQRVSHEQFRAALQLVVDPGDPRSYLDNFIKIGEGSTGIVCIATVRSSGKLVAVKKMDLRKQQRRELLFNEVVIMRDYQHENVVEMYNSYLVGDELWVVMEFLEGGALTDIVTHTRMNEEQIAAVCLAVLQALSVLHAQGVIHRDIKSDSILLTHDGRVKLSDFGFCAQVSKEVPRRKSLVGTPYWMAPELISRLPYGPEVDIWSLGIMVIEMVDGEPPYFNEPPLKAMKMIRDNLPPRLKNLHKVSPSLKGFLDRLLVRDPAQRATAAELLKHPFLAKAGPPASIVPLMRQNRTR
# Description: as §1, §2, §3
# [21] = target: PKBa (Homo sapiens (Human), UniProt P31749); experiment: ICKP protein kinase panel screening; format: biochemical; conditions: duplicate assays, read-out: mean % residual activity
# Description: as §1, §2, §3
# [22] = target: PKD1 (Homo sapiens (Human), UniProt Q15139); experiment: ICKP protein kinase panel screening; format: biochemical; conditions: duplicate assays, read-out: mean % residual activity
# Description: as §1, §2, §3
# [23] = target: RIPK2 (Homo sapiens (Human), UniProt O43353); experiment: ICKP protein kinase panel screening; format: biochemical; conditions: duplicate assays, read-out: mean % residual activity
# Description: as §1, §2, §3
# [24] = target: RSK1 (Homo sapiens (Human), UniProt Q15418); experiment: ICKP protein kinase panel screening; format: biochemical; conditions: duplicate assays, read-out: mean % residual activity
# Description: as §1, §2, §3
# [25] = target: S6K1 (Homo sapiens (Human), UniProt P23443); experiment: ICKP protein kinase panel screening; format: biochemical; conditions: duplicate assays, read-out: mean % residual activity
# Description: as §1, §2, §3
# [26] = target: SGK1 (Homo sapiens (Human), UniProt O00141); experiment: ICKP protein kinase panel screening; format: biochemical; conditions: duplicate assays, read-out: mean % residual activity
# Description: as §1, §2, §3
# [27] = target: SRPK1 (Homo sapiens (Human), UniProt Q96SB4); experiment: ICKP protein kinase panel screening; format: biochemical; conditions: duplicate assays, read-out: mean % residual activity
# Chain of SRPK1 (Q96SB4 whole entry): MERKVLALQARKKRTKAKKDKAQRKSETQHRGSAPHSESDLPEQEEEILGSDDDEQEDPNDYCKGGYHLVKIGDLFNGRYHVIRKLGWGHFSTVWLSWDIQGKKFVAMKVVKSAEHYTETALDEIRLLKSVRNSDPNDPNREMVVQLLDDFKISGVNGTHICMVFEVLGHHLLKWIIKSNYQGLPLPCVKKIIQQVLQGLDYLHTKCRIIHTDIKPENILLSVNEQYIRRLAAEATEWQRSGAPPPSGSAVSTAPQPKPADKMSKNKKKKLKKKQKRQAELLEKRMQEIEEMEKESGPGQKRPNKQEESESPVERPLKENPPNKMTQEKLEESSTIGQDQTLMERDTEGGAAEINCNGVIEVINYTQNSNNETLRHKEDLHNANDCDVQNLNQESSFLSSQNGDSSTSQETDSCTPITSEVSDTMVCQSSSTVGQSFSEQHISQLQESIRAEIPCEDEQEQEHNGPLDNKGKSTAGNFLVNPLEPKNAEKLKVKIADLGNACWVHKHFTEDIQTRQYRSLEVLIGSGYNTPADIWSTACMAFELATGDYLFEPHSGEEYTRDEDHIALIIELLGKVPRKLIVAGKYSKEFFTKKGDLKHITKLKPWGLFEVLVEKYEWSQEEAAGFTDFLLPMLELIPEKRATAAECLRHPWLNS
# Description: as §1, §2, §3
# [28] = target: SYK (Homo sapiens (Human), UniProt P43405); experiment: ICKP protein kinase panel screening; format: biochemical; conditions: duplicate assays, read-out: mean % residual activity
# Description: as §1, §2, §3
# [29] = target: Src (Homo sapiens (Human), UniProt P12931); experiment: ICKP protein kinase panel screening; format: biochemical; conditions: duplicate assays, read-out: mean % residual activity
# Description: as §1, §2, §3
# [30] = target: TAK1 (Homo sapiens (Human), UniProt O43318); experiment: ICKP protein kinase panel screening; format: biochemical; conditions: duplicate assays, read-out: mean % residual activity
# Description: as §1, §2, §3
# [31] = target: TTK (Homo sapiens (Human), UniProt P33981); experiment: ICKP protein kinase panel screening; format: biochemical; conditions: duplicate assays, read-out: mean % residual activity
# Description: as §1, §2, §3
# [32] = target: TrkA (Homo sapiens (Human), UniProt P04629); experiment: ICKP protein kinase panel screening; format: biochemical; conditions: duplicate assays, read-out: mean % residual activity
# Description: as §1, §2, §3
# [33] = target: VEG-FR (Homo sapiens (Human), UniProt P17948); experiment: ICKP protein kinase panel screening; format: biochemical; conditions: duplicate assays, read-out: mean % residual activity
# Description: as §1, §2, §3
# [34] = system: panel of 50 protein kinases; experiment: ICKP screening, whole panel of 50 protein kinases; format: biochemical, human; conditions: 10 μM
# Description: as §1, §2, §3
# Chain of Aurora B (Q96GD4 whole entry): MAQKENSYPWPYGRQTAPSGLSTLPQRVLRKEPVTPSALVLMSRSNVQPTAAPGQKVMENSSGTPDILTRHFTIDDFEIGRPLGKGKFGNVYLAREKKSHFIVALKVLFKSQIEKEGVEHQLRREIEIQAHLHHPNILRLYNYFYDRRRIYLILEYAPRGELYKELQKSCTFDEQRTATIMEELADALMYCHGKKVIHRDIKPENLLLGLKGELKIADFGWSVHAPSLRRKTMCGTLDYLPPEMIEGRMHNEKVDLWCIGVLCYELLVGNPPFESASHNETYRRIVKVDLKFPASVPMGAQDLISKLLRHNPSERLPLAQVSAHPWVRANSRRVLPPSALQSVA
smiles,measurement,setting,value
"O=c1[nH]cc(Nc2ccccc2)cc1-c1ccccc1Br [Compound 69, 3-(2-Bromophenyl)-5-(phenylamino)pyridin-2(1H)-one]",remaining activity at 10 µM,[1],77%
same,remaining activity at 10 µM,[2],96%
same,remaining activity at 10 µM,[3],95%
same,remaining activity at 10 µM,[4],101%
same,remaining activity at 10 µM,[5],98%
same,remaining activity at 10 µM,[6],116%
same,remaining activity at 10 µM,[7],105%
same,remaining activity at 10 µM,[8],98%
same,remaining activity at 10 µM,[9],96%
same,remaining activity at 10 µM,[10],96%
same,remaining activity at 10 µM,[11],107%
same,remaining activity at 10 µM,[12],83%
same,remaining activity at 10 µM,[13],108%
same,remaining activity at 10 µM,[14],102%
same,remaining activity at 10 µM,[15],112%
same,remaining activity at 10 µM,[16],109%
same,remaining activity at 10 µM,[17],100%
same,remaining activity at 10 µM,[18],91%
same,remaining activity at 10 µM,[19],102%
same,remaining activity at 10 µM,[20],89%
same,remaining activity at 10 µM,[21],107%
same,remaining activity at 10 µM,[22],92%
same,remaining activity at 10 µM,[23],90%
same,remaining activity at 10 µM,[24],94%
same,remaining activity at 10 µM,[25],87%
same,remaining activity at 10 µM,[26],89%
same,remaining activity at 10 µM,[27],81%
same,remaining activity at 10 µM,[28],79%
same,remaining activity at 10 µM,[29],93%
same,remaining activity at 10 µM,[30],68%
same,remaining activity at 10 µM,[31],81%
same,remaining activity at 10 µM,[32],88%
same,remaining activity at 10 µM,[33],94%
same,"mean percentage of residual activity, other kinases of the panel (small disks)",[34]; all kinases except p38α MAPK,≥ 65%
same,selectivity for p38α MAPK over the other protein kinases,[34]; panel of 50 kinases,highly selective
